In ChEMBL document CHEMBL1136005 (J Med Chem, 2002):

Biological target: Platelet-derived growth factor receptor (Homo sapiens, UniProt P09619+P16234)
Assay: Concentration required for 50% inhibition against autophosphorylation of Platelet-derived growth factor receptor beta in intact cells using a two site ELISA
Type: cell-based

**Q.** COc1cc2ncnc(N3CCN(C(=S)NCc4ccc(C(C)C)cc4)CC3)c2cc1OC was tested. Which IC50 did it give?
**A.** 0.2 µM

**Q.** COc1cc2ncnc(N3CCN(C(=NC#N)NCc4cccc(Cl)c4)CC3)c2cc1OC was tested. Which IC50 did it give?
**A.** 23.5 µM

**Q.** How did the IC50 turn out when COc1cc2ncnc(N3CCN(C(=S)NCc4ccc(C)cc4)CC3)c2cc1OC was run?
**A.** 0.03 µM

**Q.** Which IC50 does the source give for COc1cc2ncnc(N3CCN(C(=O)NCCc4ccc(Cl)cc4)CC3)c2cc1OC here?
**A.** 5.84 µM

**Q.** Which IC50 does the source give for COc1cc2ncnc(N3CCN(C(=S)NCC4(c5ccc(Cl)cc5)CC4)CC3)c2cc1OC here?
**A.** > 30 µM

**Q.** With COc1cc2ncnc(N3CCN(C(=S)Nc4ccc(Cl)cc4)CC3)c2cc1OC as the compound, how does the IC50 read?
**A.** 0.79 µM

**Q.** With COc1cc2ncnc(N3CCN(/C(S)=N\CC4CCCO4)CC3)c2cc1OC (stereo unspecified) as the compound, how does the IC50 read?
**A.** > 30 µM

**Q.** For COc1cc2ncnc(N3CCN(C(=S)Nc4ccccn4)CC3)c2cc1OC, which IC50 is on record?
**A.** > 30 µM

**Q.** COc1cc2ncnc(N3CCN(C(NCc4ccc(Cl)cc4)=C(C#N)C#N)CC3)c2cc1OC was tested. Which IC50 did it give?
**A.** 5.24 µM

**Q.** COc1cc2ncnc(N3CCN(C(=O)Nc4ccncc4)CC3)c2cc1OC was tested. Which IC50 did it give?
**A.** 14.1 µM

**Q.** COc1cc2ncnc(N3CCN(C(=O)Nc4cncc(Cl)c4)CC3)c2cc1OC was tested. Which IC50 did it give?
**A.** 8.23 µM

**Q.** How did the IC50 turn out when COc1cc2ncnc(N3CCN(C(=S)NCc4cccc(Cl)c4)CC3)c2cc1OC was run?
**A.** 0.23 µM

**Q.** For COc1cc2ncnc(N3CCN(C(=NC#N)NCc4ccc(C)cc4)CC3)c2cc1OC, which IC50 is on record?
**A.** 0.34 µM

**Q.** COc1ccc(CNC(=S)N2CCN(c3ncnc4cc(OC)c(OC)cc34)CC2)cc1OC was tested. Which IC50 did it give?
**A.** 2.41 µM

**Q.** How did the IC50 turn out when COc1cc2ncnc(N3CCN(C(=O)Oc4ccc([N+](=O)[O-])cc4)CC3)c2cc1OC was run?
**A.** > 30 µM

**Q.** Which IC50 does the source give for COc1cc2ncnc(N3CCN(C(=S)NCc4ccc(C(C)(C)C)cc4)CC3)c2cc1OC here?
**A.** 0.16 µM

**Q.** Which IC50 does the source give for COc1cc2ncnc(N3CCN(C(=S)NCC4CCCCC4)CC3)c2cc1OC here?
**A.** > 10 µM

**Q.** For COc1cc2ncnc(N3CCN(C(=O)NCc4ccc(C(C)(C)C)cc4)CC3)c2cc1OC, which IC50 is on record?
**A.** 0.11 µM

**Q.** For COc1cc2ncnc(N3CCN(C(=S)N(C)Cc4ccccc4)CC3)c2cc1OC, which IC50 is on record?
**A.** > 30 µM

**Q.** Which IC50 does the source give for COc1cc2ncnc(N3CCN(C(=S)NC(=O)c4ccc(Cl)cc4)CC3)c2cc1OC here?
**A.** > 30 µM

**Q.** COc1cc2ncnc(N3CCN(C(=S)NCCc4ccc(Cl)cc4)CC3)c2cc1OC was tested. Which IC50 did it give?
**A.** 1.09 µM

**Q.** With COc1cc2ncnc(N3CCN(C(=O)Nc4ccccn4)CC3)c2cc1OC as the compound, how does the IC50 read?
**A.** > 10 µM

**Q.** Which IC50 does the source give for COc1cc2ncnc(N3CCN(C(=O)NCc4ccc(Br)cc4)CC3)c2cc1OC here?
**A.** 0.74 µM

**Q.** With COc1cc2ncnc(N3CCN(C(=NC#N)NCc4ccc5c(c4)OCO5)CC3)c2cc1OC as the compound, how does the IC50 read?
**A.** 0.19 µM

**Q.** How did the IC50 turn out when COc1cc2ncnc(N3CCN(C(=NC#N)NCc4ccc(Cl)cc4)CC3)c2cc1OC was run?
**A.** 0.96 µM

**Q.** With COc1cc2ncnc(N3CCN(C(=O)N(C)c4ccc(Br)cc4)CC3)c2cc1OC as the compound, how does the IC50 read?
**A.** > 30 µM

**Q.** With COc1cc2ncnc(N3CC(C)N(/C(S)=N\Cc4ccccc4)C(C)C3)c2cc1OC (stereo unspecified) as the compound, how does the IC50 read?
**A.** 0.64 µM

**Q.** How did the IC50 turn out when COc1cc2ncnc(N3CCN(C(=O)NCc4ccsc4)CC3)c2cc1OC was run?
**A.** > 30 µM

**Q.** With COc1cc2ncnc(N3CCN(C(=O)Nc4ccc(Oc5ccccc5)cc4)C(C)C3)c2cc1OC (stereo unspecified) as the compound, how does the IC50 read?
**A.** 0.08 µM

**Q.** COc1cc2ncnc(N3CCN(C(=S)Nc4cncc(Cl)c4)CC3)c2cc1OC was tested. Which IC50 did it give?
**A.** 0.55 µM

**Q.** Which IC50 does the source give for COc1cc2ncnc(N3CCN(C(=O)NCc4ccc(Cl)cc4)CC3)c2cc1OC here?
**A.** 1.27 µM

**Q.** How did the IC50 turn out when COc1cc2ncnc(N3CCN(C(=O)NCc4ccc(F)cc4)CC3)c2cc1OC was run?
**A.** 9.59 µM

**Q.** With COc1cc2ncnc(N3CC(C)N(C(=O)Nc4ccc(Oc5ccccc5)cc4)CC3C)c2cc1OC (stereo unspecified) as the compound, how does the IC50 read?
**A.** > 30 µM

**Q.** Which IC50 does the source give for COc1cc2ncnc(N3CCN(C(=O)Nc4cccs4)CC3)c2cc1OC here?
**A.** 0.41 µM

**Q.** COc1cc2ncnc(N3CCN(C(=O)NCC(=O)c4ccc(Br)cc4)CC3)c2cc1OC was tested. Which IC50 did it give?
**A.** 0.14 µM

**Q.** With COc1cc2ncnc(N3CCN(C(=S)N[C@@H](C)c4ccccc4)CC3)c2cc1OC as the compound, how does the IC50 read?
**A.** 0.54 µM

**Q.** Which IC50 does the source give for COc1cc2ncnc(N3CCN(C(=NC#N)NCc4ccccc4Cl)CC3)c2cc1OC here?
**A.** > 30 µM

**Q.** With COc1cc2ncnc(N3CCN(C(=S)Nc4ccncc4)CC3)c2cc1OC as the compound, how does the IC50 read?
**A.** 0.98 µM

**Q.** Which IC50 does the source give for COc1cc2ncnc(N3CCN(C(=S)NCc4ccc(Br)cc4)CC3)c2cc1OC here?
**A.** 0.03 µM

**Q.** Which IC50 does the source give for COc1cc2ncnc(N3CCN(C(=O)NCc4ccc(C)cc4)CC3)c2cc1OC here?
**A.** 2.94 µM

**Q.** How did the IC50 turn out when COc1cc2ncnc(N3CCN(C(=O)Nc4ccc(Br)cc4)CC3)c2cc1OC was run?
**A.** 0.53 µM
